Where two headings read alike, the source gives them in different places.
Tested on: leech-derived protein according to the invention
Assay: Effect of typical inhibitors on the activity of the protein
Format: biochemical, Hirudo medicinalis
Conditions: for IC50: read-out: IC50 (mM), dose of inhibitor which gave half maximal inhibition
Experimental: Any hydrolysis of the chromogenic substrates. S2251, S2586, S2288. […] A preferred assay method is described below. Preparations for assay are reconstituated or diluted in assay buffer: 50 mM Tris, 0.2M NaCl, 0.05% casein (Hammerstan grade from British Drug Houses), 0.1% Brij 35, 0.01% sodium azide, pH8.0. Activity is det.ermined using modification of the AZOCCLL assay adapted to microtitre plates. Aliquots (100 microliters) of protein. in a range of dilutions in assay buffer, are incubated with a suspension of washed substrate (100 microliters: 10mg/ml) at 37 degrees Celsius. At the end of the incubation period which varies according to the experiment and dose of protein, the undigested substrate is sedimented by centrifugation and aliquots (100 microliters) of the supernatants transferred to another plate in which the absorbance at 560 nm is measured. Protein activity can be expressed as milliequivalent units of bacterial collagenase (Clostridium histolyticum) assayed at the same time under the same conditions.
The effect of some typical inhibitors was examined. The protein (5000 units/ml of a preparation of specific activity 10,000-20,000 units/mg) was incubated with DTT, cysteine, EDTA and leech anti-chymotrypsin in a range of concentrations with substrate. […] The effects of orthophenanthroline (2 mM): TIMP (tissue inhibitor of metallo-proteinase) 0.4 micrograms with APMA (0.5 mM) and with pre-incubation for 15 min): SBTI (7.5 micrograms and 30 min pre-incubation): and PMSF ([…] with 30 min pre-incubation) were also studied.

[1] = protein 5000 units/ml, o-phenanthroline 2 mM, TIMP 0.4 micrograms, SBTI 7.5 micrograms, PMSF single dose only

| Molecule | effect of inhibitor on activity of the protein (protein 5000 units/ml) | IC50 (mM), dose of inhibitor which gave half maximal inhibition [1] | IC50 [1] | effect of inhibitor on activity of the protein | IC50 |
| --- | --- | --- | --- | --- | --- |
| c1cnc2c(c1)ccc1cccnc12 [o-Phenanthroline] | did not inhibit activity | No effect |  |  |  |
| N[C@@H](CS)C(=O)O [Cysteine] | destroyed activity |  | 3 mM |  |  |
| O=C(O)CN(CCN(CC(=O)O)CC(=O)O)CC(=O)O [EDTA] |  |  |  | destroyed activity | 2 mM |
| O=S(=O)(F)Cc1ccccc1 [PMSF] | did not inhibit activity | No effect |  |  |  |
| O[C@H](CS)[C@H](O)CS (racemic) [Dithiothreitol] | destroyed activity |  | 0.2 mM |  |  |
| [N-]=[N+]=[N-] [sodium azide] | did not inhibit activity |  |  |  |  |
| SBTI: soybean trypsin inhibitor (protein, UniProt P01070 25-205, looked up) Trypsin inhibitor A: DFVLDNEGNPLENGGTYYILSDITAFGGIRAAPTGNERCPLTVVQSRNELDKGIGTIISSPYRIRFIAEGHPLSLKFDSFAVIMLCVGIPTEWSVVEDLPEGPAVKIGENKDAMDGWFRLERVSDDEFNNYKLVFCPQQAEDDKCGDIGISIDHDDGTRRLVVSKNKPLVVQFQKLDKESL | did not inhibit activity | No effect |  |  |  |
